# Laboratory results reported in patent US8080571B2, “Tricyclic angiotensin II agonists” (Vicore Pharma AB, priority 2005, dated 2011).
# Test system: duodenal mucosa
# Assay: Test C: duodenal mucosal alkaline secretion assay
# Format: in vivo, rat
# Conditions: co-administration of the AT2 receptor antagonist with title compounds
# Excerpt: Duodenal Mucosal Alkaline Secretion Assay
# Compounds were exposed to the duodenal mucosa in barbiturate-anaesthetised rats prepared for in situ titration of duodenal mucosal alkaline secretion, according to the methodology described by Flemström et al in Am. J. Physiol. (1982) 243, G348.
compound,measurement,value
Cc1cc(Cn2cnc3c2C[C@@H](C(=O)O)N(C(=O)C(c2ccccc2)c2ccccc2)C3)ccc1N(C)C [PD123319],effect on the stimulation of mucosal alkalisation by the title compounds,blocked
